Here are results for 1 compound from patent publication US12285528B2, “Injectable formulations of anesthetics for any pathological pain” (New Jersey Institute of Technology, priority 2018, dated 2025).

Common to all, as to format: in vivo, rat
Data set [1] has as its system incision-induced mechanical pain hypersensitivity. The data set can be described thus: Incisional pain model, mechanical allodynia (paw withdrawal threshold, von Frey) after peri-sciatic nerve injection. The settings on record: 0.25%, 0.2 mL peri-sciatic, P<0.05. The method, then: (§1) Male and female Sprague-Dawley rats weighing 200-250 g were obtained from Charles River Laboratories (Wilmington, MA). All rats were housed in an animal facility that was kept in a standard 12-h light/dark cycle, with standard laboratory water and food pellets available ad libitum. Animal experiments were conducted with the approval of the Animal Care and Use Committee at Rutgers-New Jersey Medical School and were consistent with the ethical guidelines of the US National Institutes of Health and the International Association for the Study of Pain. All efforts were made to minimize animal suffering and to reduce the number of animals used. To minimize intra- and inter-individual variability of behavioral outcome measures, animals were trained for 1-2 days before behavioral testing was performed. The experimenters were blinded to treatment condition during behavioral testing.
(§2) The incisional surgery was carried out with minor modification as described in T. J. Brennan, et al., Characterization of a rat model of incisional pain, Pain, 64 (1996) 493-501. Rats were anesthetized with 2% isoflurane delivered via a nose cone. The plantar aspect of the left hindpaw was prepared in a sterile manner with a 10% povidone-iodine solution. A 1-cm longitudinal incision was made with a number 11 blade, through skin and fascia of the plantar aspect of the foot, starting 0.5 cm from the proximal edge of the heel and extending toward the toes. The plantaris muscle was elevated and incised longitudinally. After hemostasis with gentle pressure, the skin was sutured with 5-0 nylon thread. The wound site was covered with a mixture of polymixin B, neomycin, and bacitracin ointment. After surgery, the animals were allowed to recover in their cages.
(§3) The rats received sciatic nerve block under inhalation anesthesia with isoflurane. Nerve block injections were performed with a 20-gauge needle under isoflurane-oxygen anesthesia as described in J. G. Thalhammer, et al., Neurologic evaluation of the rat during sciatic nerve block with lidocaine, Anesthesiology, 82 (1995) 1013-1025. […]

The subject of data set [2] is incision-induced thermal pain hypersensitivity. Description: Incisional pain model, heat allodynia (paw withdrawal latency) after peri-sciatic nerve injection. The settings on record: 0.25%, P<0.05. The method, then:
as §1, §2, §3

Data set [3] has as its system postsurgical pain (hindpaw plantar incision). The data set can be described thus: Incisional pain model, overall analgesic effect (mechanical and heat) after peri-sciatic nerve injection. As to conditions: 0.25%, 0.2 mL peri-sciatic. The method, then:
as §1
The incisional surgery was carried out with minor modification as described in T. J. Brennan, et al., Characterization of a rat model of incisional pain, Pain, 64 (1996) 493-501. Rats were anesthetized with 2% isoflurane delivered via a nose cone. The plantar aspect of the left hindpaw was prepared in a sterile manner with a 10% povidone-iodine solution. […]

The subject of data set [4] is locomotor function. Description: Locomotor function test (placing, grasping, righting reflexes). The settings on record: 0.25%. The method, then:
The rats were divided into different groups according to the different pain model performed (incisional pain model or SNI model), and were injected with 0.2 mL of a sustained-release ropivacaine hydrochloride PBS solution (SRR or alternatively, PLGA-ROPI) containing 0.25%, 0.125%, and 0.06% of PLGA-ROPI or PLGA-RVC·HCl, a PBS solution containing 0.25% free ropivacaine (FR or alternatively, Free-ROPI), and 2 control solutions of a neat PBS, and a neat PLGA, respectively. The % used here refers to the weight (gram %) of PLGA-ROPI or PLGA-RVC·HCl by the volume (mL) of the solution. For example, 0.25% refers to 0.25 g/100 mL. The animals were divided into 10 groups: incision+0.25% SRR, incision+0.125% SRR, incision+0.06% SRR, incision+0.25% FR, incision+PLGA, incision+PBS. SNI+0.25% SRR, SNI+0.125% SRR, SNI+0.06% SRR, SNI+PBS. Each group contained 8 rats. […] For the SNI model, mechanical and cold allodynia with 1 h intervals were used to examine rats 1 d before surgery and 7 d post-surgery, post peri-sciatic nerve injection on 7 d post-surgery, and the behavior test was resumed on d8, d10, d12, d14, d16, d19, and d22. Tests of locomotor function, including placing, grasping and righting reflexes, were performed before and after incision surgery according to the previously described protocol in Y. X. Tao, et al., Impaired neuropathic pain and preserved acute pain in rats overexpressing voltage-gated potassium channel subunit Kv1.2 in primary afferent neurons, Molecular Pain, 10 (2014) 8. (1) Placing reflex: The rat was held with hind limbs slightly lower than the forelimbs and the dorsal surfaces of the hind paws were brought into contact with the edge of a table. Whether the hind paws were placed on the table surface reflexively was recorded; (2) Grasping reflex: The rat was placed on a wire grid and whether the hind paws grasped the wire on contact was recorded; (3) Righting reflex: The rat's back was placed on a flat surface and whether it immediately assumed the normal upright position was recorded. […] In addition, the animal's general behaviors, including spontaneous activity (e.g. walking and running), were observed.

For data set [5], the system named is sciatic nerve and surrounding tissues. The data set can be described thus: Histology (H&E) of sciatic nerve and surrounding tissues. The settings on record: 0.25%, 11 days after injection. From the text: The rats were anesthetized with isoflurane and sciatic nerves were harvested and fixed in 4% paraformaldehyde. Following tissue fixation and dehydration, sciatic nerves were embedded in Optimal cutting temperature compound (OCT compound) and 20-μm thin slices were cut on a cryostat, then stained using hematoxylin and eosin stain technique. Nerve structures were observed using a Nikon microscope (Nikon Eclipse 80i, Japan). Rats injected with PBS, PLGA, 0.25% FR (i.e., 0.25% Free ROPI), and 0.25% SRR (i.e., 0.25% PLGA-ROPI) were euthanized 11 days after injection (n=3 for each group), and the sciatic nerve and surrounding tissues were harvested, sectioned for histology, and stained with hematoxylin-eosin (H&E). SRR were not observed on gross dissection.

The subject of data set [6] is myelin basic protein (MBP) of sciatic nerve. Description: Immunohistochemistry, MBP expression pattern of sciatic nerve. The settings on record: 0.25%, 11 days post injection. The method, then: Immunohistochemistry analysis were performed as described previously in Y. X. Tao, et al., Nerve injury-induced epigenetic silencing of opioid receptors controlled by DNMT3a in primary afferent neurons, Pain, 158 (2017) 1153-1165. The rats were anesthetized with isoflurane and perfused with 300 mL of 4% paraformaldehyde in 0.1 M phosphate-buffered saline (PBS) (pH 7.4). After perfusion, sciatic nerves were dissected, postfixed at 4° C. for 4 hours and cryoprotected in 30% sucrose overnight. The transverse and longitudinal sections were cut on a cryostat at a thickness of 20 μm. The sections were blocked for 1 hour at 25° C. in 0.01M PBS containing 5% goat serum and 0.3% Triton X-100. Sections were incubated overnight at 4° C. with mouse anti-myelin basic protein (MBP) (1:500; Biolegend, San Diego, CA). The sections were then incubated with a mixture of goat anti-mouse antibody conjugated to Cy2 (1:500; Jackson ImmunoResearch, West Grove, PA) for 2 hours at room temperature. Immunofluorescence-labeled images were generated using a Leica DMI4000 fluorescence microscope with a DFC365FX camera (Leica, Germany).
To examine whether injection of SRR injured the nerve fiber, we investigated the MBP expression pattern of sciatic nerve on 11 days post injection of PBS, PLGA, 0.25% FR, and 0.25% SRR (n=3 for each group).

In data set [7] the test system is sciatic nerve myelin sheath. Description: Transmission electron microscopy, ultrastructure of sciatic nerve. The settings on record: 0.25%; day 11 after injection; ipsilateral sciatic nerve; no significant difference among groups. The method, then:
The rats were anesthetized with isoflurane and perfused with 300 mL of 2.5% gluteraldehyde in 0.1M sodium cacodylate buffer (pH 7.4). After perfusion, sciatic nerves were dissected, postfixed at 4° C. for 3 hours. After dehydrated by gradient ethanol elution, samples were cleared by propylene, then infiltrated with resin and embed in moulds. Transmission electronic microscopy images were acquired by a Hitachi H-7500 transmission electron microscope (Hitachi, Ltd. Japan). To observe the ultrastructure of sciatic nerve after injection, we harvested ipsilateral sciatic nerves on day 11 after injection of PBS. PLGA, 0.25% FR, and 0.25% SRR (n=3 for each group), then processed the tissue to be examined under TEM. […] Specific features of the degeneration of myelin sheath including thinner lamellae, loose lamellae, split myelin lamellae with discontinuities, or vacuole-like inclusions in the cytoplasm of Schwann cells were not observed in any of the nerve tissue.

[8] abbreviates: 2 h, normal reflexes in five trials.

Each structure is given as a SMILES string. Bounds are passed on as bounds.

As to `CCCN1CCCC[C@H]1C(=O)Nc1c(C)cccc1C` [FR, ropivacaine], the “increase of paw withdrawal threshold to mechanical stimulation vs incision+PBS” value in data set [1] (2 h after surgery) came out at 76%; in data set [1] (4 h after surgery), 59%; in data set [1] (12 h after surgery), 71%. Besides, the “increase of paw withdrawal latency to heat stimulation vs incision+PBS” value is reported as 29% in data set [2] (0.2 mL peri-sciatic, 2 h after surgery); 33% in data set [2] (4 h after surgery); 18% in data set [2] (12 h after surgery). Moreover, in data set [3], the “period of analgesic effect” value was at most 24 h post injection. In addition, the Grasping reflex score in data set [4] (setting [8]) is listed as 4.38(0.63); in data set [4] (12 h), 5(0); in data set [4] (1 d) it was 5(0). In addition, the Placing reflex score in data set [4] (setting [8]), in data set [4] (12 h) and in data set [4] (1 d) was 5(0) each time. Besides, the Righting reflex score in data set [4] (setting [8]), in data set [4] (12 h) and in data set [4] (1 d) was 5(0) in each case. Further, in data set [4] (first 2 h after surgery, statistics showed no significant difference), the locomotor function result is listed as “slightly altered”. Further, in data set [5], the “inflammation on microscopic examination (H&E)” value was “no significant inflammation”. Further, in data set [6], the “MBP expression pattern / myelin morphology” value is given as “no abnormality was observed”. Further, in data set [7], the “myelin sheath ultrastructure (TEM)” value was “intact and tightly laminated without any discontinuities”.
